Test results: ChEMBL document CHEMBL1133870, “Two novel cytotoxic and antimicrobial triterpenoids from Pseudolarix kaempferi” (Bioorg Med Chem Lett, 2001)
In brackets after ≈: the same amount, converted by molar mass.

Experiments:
Escherichia coli = assay: Compound was tested for minimum inhibitory concentration against Escherichia coli […]; format: functional
Micrococcus luteus = assay: Compound was tested for minimum inhibitory concentration against Micrococcus luteus ATCC 9341; format: functional
Pseudomonas aeruginosa = assay: Compound was tested for minimum inhibitory concentration against Pseudomonas aeruginosa […]; format: functional
Staphylococcus aureus = assay: Compound was tested for minimum inhibitory concentration against Staphylococcus aureus ATCC 25923; format: functional
A549 = assay: Compound was tested for its cytotoxicity against A 549 cell line; format: functional, cell-based; details: Homo sapiens
P388 = assay: Compound was tested for its cytotoxicity against P388 cell line; format: functional, cell-based; details: Mus musculus

C=C[C@@](C)(/C=C/c1ccc(O)cc1)CCC=C(C)C [BAKUCHIOL]
MIC (Escherichia coli): > 780 µM
MIC (Micrococcus luteus): 10 µM (≈ 2.56 µg/mL)
MIC (Pseudomonas aeruginosa): > 780 µM
MIC (Staphylococcus aureus): 19 µM (≈ 4.87 µg/mL)

C[C@H](CC(=O)O)[C@]1(C)CC=C2C3=CCC4C(C)(C)[C@H](O)CC[C@]4(C)[C@@H]3CC[C@]21C (stereo partly specified)
IC50 (A549): 60 µM
IC50 (P388): 55 µM

C[C@H](Cc1cc(C(=O)O)co1)[C@]1(C)CC=C2C3=CCC4C(C)(C)[C@H](O)CC[C@]4(C)[C@@H]3CC[C@]21C (stereo partly specified)
IC50 (A549): 54 µM
MIC (Escherichia coli): 107 µM (≈ 49.9 µg/mL)
MIC (Micrococcus luteus): 13 µM (≈ 6.07 µg/mL)
IC50 (P388): 50 µM
MIC (Pseudomonas aeruginosa): > 215 µM
MIC (Staphylococcus aureus): 27 µM (≈ 12.6 µg/mL)

C=CCc1ccc(O)c(-c2cc(CC=C)ccc2O)c1 [MAGNOLOL]
MIC (Escherichia coli): > 750 µM
MIC (Micrococcus luteus): 48 µM (≈ 12.8 µg/mL)
MIC (Pseudomonas aeruginosa): > 750 µM
MIC (Staphylococcus aureus): 48 µM (≈ 12.8 µg/mL)
